Data from US6683103B2, “Sulfonamides for treatment of endothelin-mediated disorders” (Texas Biotechnology Corporation, priority 1997, dated 2004).
Where two headings read alike, the source gives them in different places.

Legend:
[1] = Oral half-life and peak plasma levels in rat; type: in vivo; settings: for Peak Plasma Levels: in vivo; for POt½ in Rat: oral
Excerpt: As used herein, bioavailability refers to the rate and extent of absorption. Methods for determining bioavailability are well known to those of skill in the art. For example, bioavailability of any of the compounds described herein can be determined empirically by administration of the compound to an animal, followed by taking blood samples over time and measuring the blood concentration of the compound. In vivo half life (t½) is defined as the time it takes for the concentration of the compound in the blood to be reduced by one-half. Estimations of the area under the curve for intravenous administration can be used to estimate the area under the curve for oral administration, yielding bioavailability data. See, e.q., Milo Gibal (1991) Biopharmaceutics and Pharmacology, 4th edition (Lea and Sediger).
Table 4 lists oral half-life, bioavailability, and in vivo activity of selected exemplary compounds. The in vivo activity was measured in a pulmonary hypertension model and is a measure of the activity of the compounds at selected dosages.

human ETB receptor = molecular target: T1, human ETB receptor (Homo sapiens, UniProt P24530); assay: Binding Test #2: inhibition of 125I-ET-1 binding to ETB receptors (transfected COS7 cell membranes); settings: Table 1, read-out: ETB
T1 construct: expressed in transfected cells; host or cells: COS7 cells
T1 sequence (P24530 27-442): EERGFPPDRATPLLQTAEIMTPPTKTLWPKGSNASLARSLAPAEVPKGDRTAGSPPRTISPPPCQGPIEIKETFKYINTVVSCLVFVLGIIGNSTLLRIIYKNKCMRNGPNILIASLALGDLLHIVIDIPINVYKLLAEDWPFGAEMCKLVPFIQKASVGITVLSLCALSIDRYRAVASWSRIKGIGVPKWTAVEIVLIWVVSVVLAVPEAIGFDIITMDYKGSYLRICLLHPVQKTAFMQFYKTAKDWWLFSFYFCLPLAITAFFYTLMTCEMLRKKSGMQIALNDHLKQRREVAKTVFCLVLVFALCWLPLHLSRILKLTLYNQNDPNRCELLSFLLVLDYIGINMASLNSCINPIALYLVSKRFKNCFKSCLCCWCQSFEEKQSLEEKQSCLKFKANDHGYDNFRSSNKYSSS
Method in brief: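 Competition with 125I-ET-1 for binding to membranes from COS7 cells transfected with human ETB receptor, used at 1 μg/50 μl binding buffer. Membranes prepared in HEPES pH 7.4 with aprotinin, including a DNase/MnCl2 step at 37 °C for 30 min.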

human ETA receptors = molecular target: T2, human ETA receptors (Homo sapiens, UniProt P25101); assay: Binding Test #1: inhibition of 125I-ET-1 binding to ETA receptors (TE 671 cell membranes); settings: for IC50: read-out: ETA
T2 construct: endogenous in cells; host or cells: TE 671 cells (ATCC HTB 139)
T2 sequence (P25101 21-427): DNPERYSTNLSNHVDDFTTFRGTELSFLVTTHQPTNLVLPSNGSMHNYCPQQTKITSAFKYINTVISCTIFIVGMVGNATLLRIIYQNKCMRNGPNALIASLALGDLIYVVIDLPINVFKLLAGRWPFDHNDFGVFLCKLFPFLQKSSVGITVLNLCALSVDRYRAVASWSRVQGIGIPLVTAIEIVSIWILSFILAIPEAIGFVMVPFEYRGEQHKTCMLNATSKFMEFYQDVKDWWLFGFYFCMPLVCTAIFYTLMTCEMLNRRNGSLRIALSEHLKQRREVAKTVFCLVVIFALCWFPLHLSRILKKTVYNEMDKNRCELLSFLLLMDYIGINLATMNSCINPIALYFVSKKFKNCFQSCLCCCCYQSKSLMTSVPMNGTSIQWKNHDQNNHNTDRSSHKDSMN
Method in brief: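 Radioligand competition in triplicate: ¹²⁵I-endothelin-1 displaced by test compound (1 nM–100 μM final) from ETA-bearing TE 671 cell membranes in HEPES pH 7.4 binding buffer with NaCl, MgCl2 and bacitracin. Incubation 16–18 h at 4 °C (or at 24 °C); 80 nM ET-1 defines nonspecific binding; pellet radioactivity gives percent inhibition.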

[2] = system: DOCA-salt hypertensive rat; assay: Deoxycorticosterone acetate (DOCA)-salt hypertensive rat model; type: in vivo
Description: E. Deoxycorticosterone Acetate (DOCA)-Salt Hypertensive Rat Model for Assessing in vivo Activity of Selected Compounds
Selected compounds disclosed herein have been tested for activity in the deoxycorticosterone acetate (DOCA)-salt hypertensive rat model. To perform these tests, silastic MDX4-4210 elastomer implants containing 47 mg (DOCA) were prepared according to the method of Ornmsbee et al. ((1973) the J. Pharm. Sci. 62:255-257). Briefly, DOCA is incorporated into silicon rubber implants for sustained release. To prepare the implants the DOCA is incorporated into unpolymerized silicone rubber, catalyst is added and the mixture is cast in a hemicylindrical shape.
Sprague Dawley rats (7-8 weeks old) were unilaterally nephrectomized under ketamine anesthesia and a DOCA-implant was placed on the left lateral dorsal abdomen of the animal. The rats were allowed to recover for three weeks. During recovery they were permitted free access to normal rat chow and 0.9% NaCl drinking solution in place of drinking water. The rats develop hypertension within 3 weeks.
All animals were used in the tests between 21 and 30 days post surgery. The mean arterial blood pressure in these animals ranged from 165-200 mm Hg.
On the day of experimentation, catheters were inserted under brevital anesthesia into the right femoral artery for measurement of blood pressure, and into the right femoral vein for administration of a selected compound. The animals were placed in a restrainer and allowed to recover for a minimum of 60 min or until a steady mean arterial blood pressure was recorded. At that time, the selected compound or control vehicle was administered either intravenously, as a 60 minute infusion, or orally by oral gavage. Blood pressure was recorded continuously for a further 10 hrs.

[3] = system: ET-1-induced pressor response; assay: ET-1-induced pressor responses in conscious, autonomically blocked rats; type: in vivo, rat; settings: in 30 min at dosages as low as 30 mg/kg
Description: Animals were placed in a restrainer and allowed to regain consciousness. Thirty minutes later autonomic blockade was administered (atropine methyl nitrate, 3 mg/kg, IV, followed by propranalol, 2 mg/kg, IV). An hour later animals received a bolus injection of vehicle (0.5 ml) followed thirty minutes later by intravenous bolus administration of ET-1 (Control, 1 μg/kg). Following recovery from this challenge, test-compounds were administered by intravenous bolus administration (0.5 ml) and then re-challenged with ET-1 thirty minutes later. Results are expressed as the percent inhibition of the ET-1-induced pressor response after administration of the test compound compared to the pressor response induced by the control ET-1 challenge. In some cases a third ET-1 challenge was administered ninety minutes after administration of the test compound.

[4] = Table 1, † incubation at 24° C.
[5] = Table 3, † incubation at 24° C.

SMILES | Peak Plasma Levels [1] | POt½ in Rat [1] | IC50 (human ETB receptor; † incubation at 24° C.) | IC50 (human ETA receptors; [4]) | melting point | also measured
Cc1cc(C)c(NC(=O)c2sccc2S(=O)(=O)Nc2onc(C)c2Cl)c(C)c1CO [N-(4-chloro-3-methyl-5-isoxazolyl)-2-(3-hydroxymethyl-2,4,6-trimethylphenylaminocarbonyl)thiophene-3-sulfonamide] | 3 µg/mL | 1.5 h | ~80000 nM | 0.4 nM | – | –
Cc1noc(NS(=O)(=O)c2ccc(-c3ccon3)s2)c1Br [Example 10, N-(4-Bromo-3-methyl-5-isoxazolyl)-5-(3-isoxazolyl)thiophene-2-sulfonamide] | – | – | – | – | 120 to 123 °C | –
Cc1cc(C)c(NC(=O)c2sccc2S(=O)(=O)Nc2onc(C)c2Cl)c(C(=O)C(C)C)c1 [3-(((4-chloro-3-methyl-5-isoxazolyl)amino)sulfonyl)-N-(2-isobutyryl-4,6-dimethylphenyl)-2-thiophenecarboxamide] | 59 µg/mL | 5.4 h | – | – | – | ETA/ETB selectivity (human ETA receptors; Table 3): 14000^∥; IC50 (human ETA receptors; [5]): 1.11 nM
Cc1cc(C)c(NC(=O)c2sccc2S(=O)(=O)Nc2onc(C)c2Cl)c(C)c1C#N [N-(4-chloro-3-methyl-5-isoxazolyl)-2-(3-cyano-2,4,6-trimethylphenylaminocarbonyl)thiophene-3-sulfonamide] | 20 µg/mL | 3.9 h | – | – | – | –
Cc1cc(C)c(N(C(=O)c2sccc2S(N)(=O)=O)c2onc(C)c2Cl)c(C)c1O [Example 52, N^2-(4-Chloro-3-methyl-5-isoxazolyl)-N-(3-hydroxy-2,4,6-trimethylphenyl)-3-sulfamoyl-2-thiophenecarboxamide] | – | – | – | – | 75 to 78 °C | –
Cc1cc(C)c(NS(C)(=O)=O)c(C)c1NC(=O)c1sccc1S(=O)(=O)Nc1onc(C)c1Cl [N-(4-chloro-3-methyl-5-isoxazolyl)-2-(3-methanesulfonylamino-2,4,6-trimethylphenylaminocarbonyl)thiophene-3-sulfonamide] | 2.6 µg/mL | 5.9 h | – | – | – | –
Cc1noc(NS(=O)(=O)c2c(Cc3ccc4c(c3)OCO4)sc3ccccc23)c1Br [N-(4-bromo-3-methyl-5-isoxazolyl)-2-[3,4-(methylenedioxy)benzyl]benzo[b]thiophene-3-sulfonamide] | – | – | 939 ± 262 nM | 7.4 ± 1.1 nM | – | effect on blood pressure [2]: effective in decreasing blood pressure; IC50 (human ETB receptor; incubation at 4° C.): 324 ± 780 nM; IC50 (human ETA receptors; Table 1, incubation at 4° C.): 1.5 ± 1.4 nM
Cc1ccc(NC(=O)c2sccc2S(=O)(=O)Nc2onc(C)c2Cl)cc1 [N-(4-chloro-3-methyl-5-isoxazolyl)-2-[(4-tolyl)aminocarbonyl]thiophene-3-sulfonamide] | – | – | – | – | – | effect on blood pressure [2]: effective in decreasing blood pressure
Cc1noc(NS(=O)(=O)c2ccsc2C(=O)Nc2ccccc2O)c1Br [N-(4-bromo-3-methyl-5-isoxazolyl)-2-[(2-hydroxyphenyl)aminocarbonyl]thiophene-3-sulfonamide] | – | – | – | – | 42 to 44 °C | –
COc1cc(C#N)c(NC(=O)c2sccc2S(=O)(=O)Nc2onc(C)c2Cl)cc1OC [N-(4-chloro-3-methyl-5-isoxazolyl)-2-[{2-cyano-4,5-dimethoxyphenyl)aminocarbonyl]thiophene-3-sulfonamide] | – | – | – | – | – | reduction of pressure [3]: about 30%
COc1ccc(NC(=O)c2sccc2S(=O)(=O)Nc2onc(C)c2Cl)c(C)c1 [N-(4-chloro-3-methyl-5-isoxazolyl)-2-[4-methoxy-2-methylphenyl)aminocarbonyl]thiophene-3-sulfonamide] | – | – | – | – | – | reduction of pressure [3]: about 30%
Cc1noc(NS(=O)(=O)c2ccsc2CC(O)c2ccc3c(c2)OCO3)c1Cl (stereo not drawn) [N-(4-chloro-3-methyl-5-isoxazolyl)-2-[β-hydroxy(3,4-methylenedioxy)phenylethyl]thiophene-3-sulfonamide] | – | – | 16000 nM | 53 nM | – | effect on blood pressure [2]: effective in decreasing blood pressure
Cc1noc(NS(=O)(=O)c2ccc(COCc3ccccc3)s2)c1Br [N-(4-bromo-3-methyl-5-isoxazolyl)-5-(benzyloxymethyl)thiophene-2-sulfonamide] | – | – | 9000 nM | 12000 nM | 92 °C | –
Cc1cc(C)c(NC(=O)c2sccc2S(=O)(=O)Nc2onc(C)c2Cl)c(C)c1CC#N [N-(4-chloro-3-methyl-5-isoxazolyl)-2-(3-cyanomethyl-2,4,6-trimethylphenylaminocarbonyl)thiophene-3-sulfonamide] | 40.2 µg/mL | 3.4 h | ~45000 nM | 0.6 nM | – | –
Cc1cc(C)c(NC(=O)c2sccc2S(=O)(=O)Nc2onc(C)c2Cl)c(C(=O)C2CC2)c1 [3-(((4-chloro-3-methyl-5-isoxazolyl)amino)sulfonyl)-N-(2-(cyclopropylcarbonyl)-4,6-dimethylphenyl)-2-thiophenecarboxamide] | 53 µg/mL | 5.5 h | – | – | – | ETA/ETB selectivity (human ETA receptors; Table 3): 45000^∥; IC50 (human ETA receptors; [5]): 0.36 nM
Cc1noc(NS(=O)(=O)c2ccsc2C(N)=O)c1Br [N-(4-bromo-3-methyl-5-isoxazolyl)-2-(aminocarbonyl)thiophene-3-sulfonamide] | – | – | – | – | 168 to 170 °C | –
Cc1ccc(OCc2sccc2S(=O)(=O)Nc2onc(C)c2Br)cc1 [N-(4-bromo-3-methyl-5-isoxazolyl)-2-[(4-methylphenoxy)methyl]thiophene-3-sulfonamide] | – | – | – | – | 128 to 130 °C | –
CC(=O)c1cc2c(cc1NC(=O)c1sccc1S(=O)(=O)Nc1onc(C)c1Cl)OCO2 [N-(4-chloro-3-methyl-5-isoxazolyl)-2-{[2-acetyl-4,5-(methylenedioxy)phenyl]aminocarbonyl}thiophene-3-sulfonamide] | – | – | 31600 nM | 10 nM | – | reduction of pressure [3]: about 30%
